In paper PMC7370999, “The Neighboring Subunit Is Engaged to Stabilize the Substrate in the Active Site of Plant Arginases” (Frontiers in Plant Science, 2020):

Experiments:
AtARGAH1 [1] = target: T1, AtARGAH1 (Arabidopsis thaliana, UniProt P46637); experiment: X-ray crystal structure, […] A; assay type: binding; details: product of arginine hydrolysis before crystal growth (50 mM L-arginine, 50 mM L-glutamic acid); binuclear Mn2+; active site, completed by loop L2* of neighbouring subunit
T1 construct: gene ARGAH1; starts at codon 25 (signal peptide removed), ends at residue 342; N-terminal His6-tag cut by TEV (vector pMCSG68); E. coli BL21 Gold; hexamer, calculated 209 kDa
T1 sequence (P46637 25-342): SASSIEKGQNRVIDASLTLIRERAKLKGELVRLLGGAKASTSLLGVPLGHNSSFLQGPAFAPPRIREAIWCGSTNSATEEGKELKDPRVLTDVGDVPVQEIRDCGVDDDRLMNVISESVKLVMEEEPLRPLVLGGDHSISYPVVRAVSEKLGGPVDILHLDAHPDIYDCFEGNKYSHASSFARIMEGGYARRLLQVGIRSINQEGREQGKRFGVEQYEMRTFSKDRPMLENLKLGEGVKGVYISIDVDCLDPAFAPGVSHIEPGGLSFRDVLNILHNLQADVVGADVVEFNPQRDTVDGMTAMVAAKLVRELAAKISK

MtARGAH = target: T2, MtARGAH (Medicago truncatula, UniProt G7JFU5); experiment: turnover to ornithine during crystallization, seen in crystal structure; assay type: biochemical; details: 50 mM L-arginine in cocrystallization; Mn2+ enzyme
T2 construct: gene ARGAH; full-length, 338 residues incl. predicted 15-residue signal peptide; N-terminal His6-tag cut by TEV (vector pMCSG68); E. coli BL21 Gold; hexamer, theoretical 224 kDa
T2 sequence (G7JFU5 1-338): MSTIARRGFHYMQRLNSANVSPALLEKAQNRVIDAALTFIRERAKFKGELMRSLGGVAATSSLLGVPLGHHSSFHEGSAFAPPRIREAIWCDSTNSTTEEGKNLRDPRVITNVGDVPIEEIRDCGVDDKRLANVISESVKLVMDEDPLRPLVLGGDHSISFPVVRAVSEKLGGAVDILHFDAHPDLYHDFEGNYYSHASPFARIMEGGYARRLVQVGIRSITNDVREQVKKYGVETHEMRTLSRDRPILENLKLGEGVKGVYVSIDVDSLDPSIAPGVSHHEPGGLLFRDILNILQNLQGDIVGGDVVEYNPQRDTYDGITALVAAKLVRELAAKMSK

AtARGAH1 [2] = target: T1, AtARGAH1; experiment: as above; assay type: biochemical; details: 50 mM L-arginine in crystallization solution; Mn2+ enzyme

SMILES | X-ray crystal structure, 2.25 A (AtARGAH1 [1]) | turnover to ornithine during crystallization, seen in crystal structure (MtARGAH) | turnover to ornithine during crystallization, seen in crystal structure (AtARGAH1 [2])
NCCC[C@H](N)C(=O)O [ornithine] | Structures of AtARGAH1-ORN and MtARGAH-ORN with the reaction product, ornithine, were obtained |  | 
N=C(N)NCCC[C@H](N)C(=O)O [L-arginine] |  | obtained as a result of in vitro arginine hydrolysis | obtained as a result of in vitro arginine hydrolysis
